# Assay results as given in US20220380310A1, “P2X7R ANTAGONISTS” (priority 2019, published 2022).
# Where a name gives a salt, the structure may show the parent alone.
# Biological target: T1, Human P2X1 receptor (P2X1R) (Homo sapiens, UniProt P51575)
# T1 construct: expressed in transfected cells; host or cells: HEK-293
# T1 sequence (P51575 1-399): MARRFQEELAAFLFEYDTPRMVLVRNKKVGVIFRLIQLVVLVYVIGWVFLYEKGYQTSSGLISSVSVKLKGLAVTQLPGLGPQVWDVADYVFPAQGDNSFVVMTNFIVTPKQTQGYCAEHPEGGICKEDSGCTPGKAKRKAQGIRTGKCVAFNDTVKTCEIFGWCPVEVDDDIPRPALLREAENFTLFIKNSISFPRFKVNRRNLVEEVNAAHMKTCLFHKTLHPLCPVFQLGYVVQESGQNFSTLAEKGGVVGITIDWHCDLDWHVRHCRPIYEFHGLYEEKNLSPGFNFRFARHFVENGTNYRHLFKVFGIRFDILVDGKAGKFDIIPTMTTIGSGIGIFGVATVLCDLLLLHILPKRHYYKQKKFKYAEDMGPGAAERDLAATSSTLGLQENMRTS
# Test: Receptor-mediated calcium entrance assay (Calcium Assay), P2X1R transfected HEK-293 cells
# Format: cell-based
# Details: ATP 20 μM stimulus
# Description: Human P2X1 receptor (P2X1R) is a member of P2X family. […] Thus, the calcium assay was used. In the calcium assay, P2X receptor activation leads to opening of ion channels, which increases intracellular calcium concentration. The increased intracellular calcium concentration can be detected by a calcium indicator dye such as Fluo-4 or Fluo-8. Molecular Probes™ Fluo-4, AM (Cat. No. F14201 from Fisher Scientific) was used in the assay. The procedures were similar as described in the Yo-Pro-1 assay until day 4. The construct of P2X1R for transient transfection to HEK-293 cells was the courtesy from Dr. Richard J. Evans laboratory (J. Biol. Chem. 279:9043-9055). After transfection and expression, on day 4 cells were washed twice by Ca-HBSS (The composition (in mM) was NaCl 135, HEPES 10, D-glucose 10, KCl 5.4, CaCl2 2, and MgCl2 1, pH to 7.4 by NaOH) and incubated in dye loading solution (The solution contained 2.5 μM Fluo-4, 1 mM probenecid, and 1× PowerLoad (Cat. No. P10020 from Fisher Scientific) in Ca-HBSS) for 70 minutes at 37° C. Then the extracellular loading dye was washed away and cells were incubated at Ca-HBSS containing 1 mM probenecid for 30 minutes. Before the final steps, probenecid was washed away with Ca-HBSS. The assay was performed by adding 25 μl of Ca-HBSS followed by 25 μl of various test compounds. At this point, the base level of fluorescence was obtained through the microplate reading—the base microplate reading for this assay. At the end, the stimulus (ATP at 20 μM was the final concentration for P2X1R) was added to activate the P2X1R. Activation of P2X1R opened the channel to allow influx of calcium, which was represented by fluorescence increases that were measured by the microplate device with excitation at 475 nm and emission wavelength in the range of 500-550 nm. The data were analyzed the same way as described before: The result of each well was first normalized by its corresponding base microplate reading. Then, the negative control signal was subtracted from. In the negative control, the test compound and the stimulus were replaced by Ca-HBSS. […] An average of six highest values of the plate (AVG) were considered as 100% and the value of each well was divided by AVG and presented as the relative values in percentages.
row,SMILES,"Percentage of activity remains in the presence of the compound at 5 μM, P2X1R (Calcium Assay)"
1,"Cc1nc(N=Nc2ccc(S(=O)(=O)[O-])cc2S(=O)(=O)[O-])c(COP(=O)([O-])[O-])c(C=O)c1O.[Na+].[Na+].[Na+].[Na+] [PPADS, Pyridoxalphosphate-6-azophenyl-2′,4′-disulfonic acid tetrasodium, reference compound]",26.7%

# Same assay, conditions: HEK293, compound at 5 μM, ATP 20 μM stimulus, read-out: Percentage of activity remains in the presence of the compound at 5 μM, P2X1R (Calcium Assay)
row,SMILES,remaining activity at 5 µM
1,O=C(NCCc1ccccc1)C1CCN(S(=O)(=O)c2ccc(N3CCCC3)cc2)CC1 [#21],50.2%
2,CN1CCN(c2ccc(S(=O)(=O)N3CCCC(NC(=O)CCc4ccccc4)C3)cc2)CC1 (centres unmarked) [#18],62.3%
3,COc1ccc(S(=O)(=O)N2CCCC(NC(=O)CCc3ccccc3)C2)cc1 (centres unmarked) [#2],39.1%
4,O=C(CCc1ccccc1)NC1CCCN(S(=O)(=O)c2ccc(-n3cc(Br)cn3)cc2)C1 (centres unmarked) [#9],92.8%
5,CS(=O)(=O)c1ccc(N2CCCC(NC(=O)CCc3ccccc3)C2)cc1 (centres unmarked) [#1],56.5%
6,CCCCNc1ccc(S(=O)(=O)N2CCCC(NC(=O)CCc3ccccc3)C2)cc1 (centres unmarked) [#15],70.1%
7,O=C(NCCc1ccccc1)C1CCN(S(=O)(=O)c2ccc(N3CCCCC3)cc2)CC1 [#20],75.4%
8,O=C(CCc1ccccc1)NC1CCCN(S(=O)(=O)c2ccc(N3CCCC3)cc2)C1 (centres unmarked) [#13],54.2%
9,O=S(=O)(c1ccccc1)C1CN(S(=O)(=O)c2ccc(N3CCOCC3)cc2)C1 [#11],44.3%
10,CC(C)(C)OC(=O)N1CCN(c2ccc(S(=O)(=O)N3CCC(C(=O)NCCc4ccccc4)CC3)cc2)CC1 [#22],59.2%
11,CN(C)c1ccc(S(=O)(=O)N2CCCC(NC(=O)CCc3ccccc3)C2)cc1 (centres unmarked) [#14],63.9%
12,O=C1CCC(N2Cc3c(NC(=O)CCc4ccccc4)cccc3C2=O)C(=O)N1 (centres unmarked) [#16],51.5%
13,O=C(CCc1ccccc1)NC1CCCN(S(=O)(=O)c2ccc(F)cc2)C1 (centres unmarked) [#3],33.3%
14,O=C(CCc1ccccc1)NC1CCCN(S(=O)(=O)c2ccc(N3CCOCC3)cc2)C1 (centres unmarked) [#12],52.8%
15,O=S(=O)(c1ccccc1)C1CN(S(=O)(=O)c2ccc(N3CCCCC3)cc2)C1 [#10],51.5%
16,O=C(CCc1ccccc1)NC1CCCN(S(=O)(=O)Cc2ccc(Br)cc2)C1 (centres unmarked) [#8],67%
17,CC(C)S(=O)(=O)c1ccc(N2CCCC(NC(=O)CCc3ccccc3)C2)cc1 (centres unmarked) [#7],65.6%
18,O=C(NCCc1ccccc1)C1CCN(S(=O)(=O)c2ccc(N3CCOCC3)cc2)CC1 [#23],75.5%
19,O=C(NCCc1ccccc1)C1CCCN(S(=O)(=O)c2ccc(N3CCOCC3)cc2)C1 (centres unmarked) [#24],66.3%
20,O=C(CCc1ccccc1)NC1CCCN(S(=O)(=O)c2ccc(N3CCCCC3)cc2)C1 (centres unmarked) [#5],59.6%
21,CC(C)COc1ccc(S(=O)(=O)N2CCCC(NC(=O)CCc3ccccc3)C2)cc1 (centres unmarked) [#6],51%
22,COCCOc1ccc(S(=O)(=O)N2CCCC(NC(=O)CCc3ccccc3)C2)cc1 (centres unmarked) [#17],60.9%
23,O=C(CCc1ccccc1)NC1CCCN(S(=O)(=O)c2ccc(OCc3ccccc3)cc2)C1 (centres unmarked) [#4],43.7%

# Second part, the compound after the results:
row,remaining activity at 5 µM,SMILES
1,40.5%,CC1CCCN(c2ccc(S(=O)(=O)N3CCCC(NC(=O)CCc4ccccc4)C3)cc2)C1 (centres unmarked) [#44]
2,66.2%,NS(=O)(=O)c1ccc(N2CCCC(NC(=O)CCc3ccccc3)C2)cc1 (centres unmarked) [#53]
3,74.5%,CC(C)OC1CCN(c2ccc(S(=O)(=O)N3CCCC(NC(=O)CCc4ccccc4)C3)cc2)CC1 (centres unmarked) [#39]
4,53.8%,O=C(CCc1ccccc1)NC1CCCN(c2ccc(S(=O)(=O)N3CCCC3)cc2)C1 (centres unmarked) [#55]
5,55.4%,CCOc1ccc(S(=O)(=O)N2CCCC(NC(=O)CCc3ccccc3)C2)cc1 (centres unmarked) [#37]
6,59.3%,O=C(CCc1ccccc1)N1CCN(S(=O)(=O)c2ccc(N3CCCCC3)cc2)CC1 [#34]
7,65.8%,CC(C)N(C(C)C)S(=O)(=O)c1ccc(N2CCCC(NC(=O)CCc3ccccc3)C2)cc1 (centres unmarked) [#49]
8,67.7%,O=C(CCc1ccccc1)NC1CCCN(S(=O)(=O)c2ccc(N3CCC(F)(F)CC3)cc2)C1 (centres unmarked) [#46]
9,39%,CC1CCN(c2ccc(S(=O)(=O)N3CCCC(NC(=O)CCc4ccccc4)C3)cc2)CC1 (centres unmarked) [#40]
10,46.7%,CC(C)(C)OC(=O)N1CCC(C2CCN(c3ccc(S(=O)(=O)N4CCCC(NC(=O)CCc5ccccc5)C4)cc3)CC2)CC1 (centres unmarked) [#41]
11,62.6%,NC(=O)c1cc(Br)cc(N2CCOCC2)c1 [#28]
12,62.5%,"O=C(CCc1ccccc1)N1CCNCC1 [#29, hydrochloride]"
13,56.3%,O=C(CCc1ccccc1)N1CCN(S(=O)(=O)c2ccc(N3CCCC3)cc2)CC1 [#35]
14,70.1%,O=C(CCc1ccccc1)N1CCN(S(=O)(=O)c2ccc(F)cc2)CC1 [#30]
15,63.4%,O=C(CCc1ccccc1)NC1CCCN(c2ccc(S(=O)(=O)NCc3ccco3)cc2)C1 (centres unmarked) [#52]
16,66.3%,O=C(CCc1ccccc1)NC1CCCN(S(=O)(=O)c2ccc(N3CCC(C(F)(F)F)CC3)cc2)C1 (centres unmarked) [#42]
17,63.1%,O=C(CCc1ccccc1)NC1CCCN(c2ccc(S(=O)(=O)NC3CCCCC3)cc2)C1 (centres unmarked) [#51]
18,44.9%,O=C(CCc1ccccc1)N1CCN(S(=O)(=O)c2ccc(NC3CCCCC3)cc2)CC1 [#33]
19,50.8%,CCCCNc1ccc(S(=O)(=O)N2CCC(C(=O)O)CC2)cc1 [#27]
20,52%,O=C(CCc1ccccc1)NC1CCCN(S(=O)(=O)c2ccc(N3CCCCC3)c(Cl)c2)C1 (centres unmarked) [#45]
21,66.1%,O=C(NCCc1ccccc1)C1CCCN(S(=O)(=O)c2ccc(N3CCCC3)cc2)C1 (centres unmarked) [#25]
22,47.8%,O=C(CCc1ccccc1)NC1CCCN(c2ccc(S(=O)(=O)Nc3ccccc3)cc2)C1 (centres unmarked) [#50]
23,43.9%,CC(C)(C)OC(=O)N1CCN(c2ccc(S(=O)(=O)N3CCN(C(=O)CCc4ccccc4)CC3)cc2)CC1 [#31]
24,57.1%,O=C(CCc1ccccc1)NC1CCCN(S(=O)(=O)c2ccc(F)c(Cl)c2)C1 (centres unmarked) [#43]
25,48.4%,O=C(CCc1ccccc1)NC1CCCN(c2ccc(S(=O)(=O)N3CCCCC3)cc2)C1 (centres unmarked) [#54]
26,43.8%,O=C(CCc1ccccc1)NC1CCCN(S(=O)(=O)c2ccc(N3CCC(Oc4ccccc4)CC3)cc2)C1 (centres unmarked) [#38]
27,49%,CC(C)(C)OC(=O)N1CCN(c2ccc(S(=O)(=O)N3CCCC(C(=O)NCCc4ccccc4)C3)cc2)CC1 (centres unmarked) [#36]
28,46.7%,O=C(CCc1ccccc1)N1CCN(S(=O)(=O)c2ccc(N3CCOCC3)cc2)CC1 [#32]
29,50.1%,CC1CCCCN1c1ccc(S(=O)(=O)N2CCCC(NC(=O)CCc3ccccc3)C2)cc1 (centres unmarked) [#47]
